In patent US20250276965A1, “PROCESS FOR THE PREPARATION OF ANTIBACTERIAL COMPOUNDS” (DISCUVA LIMITED, priority 2021, published 2025):

Columns and labels:
[1] = system: Klebsiella pneumoniae ATCC 43816; experiment: Proof-of-concept murine respiratory infection model, IV bolus; type: in vivo; conditions: CD-1 mice, 20 mg/kg IV bolus TID, 26 h
Procedure: Compound (I) and comparative compound (III) were evaluated in proof-of-concept studies in murine models for the treatment of a respiratory infection with Gram-negative bacteria of the order Enterobacterales, a bacteraemia or bloodstream infection with Gram-negative bacteria of the order Enterobacterales, and a urinary tract infection with Gram-negative bacteria of the order Enterobacterales. Each dot, triangle or square indicator represents a single mouse. LOD refers to the limit of detection of the bacteria. […] Each of the proof-of-concept studies was carried out separately. By vehicle is meant pharmaceutically acceptable carrier or excipient. For the proof-of-concept study for the treatment of a respiratory infection caused or exacerbated by Gram-negative bacteria of the order Enterobacterales, CD-1 mice were infected with Klebsiella pneumoniae ATCC 43816. Two hours after infection (‘pre-treatment’ in FIG. 2), a vehicle (20% hydroxypropyl β cyclodextrin) containing no compound (I) or comparative compound (III), or a vehicle (20% hydroxypropyl β cyclodextrin) containing compound (I) or comparative compound (III), was administered by IV bolus at 20 mg/kg, TID (8 hrs apart), over one day.

[2] = system: E. coli BAA-2469 (NDM-1 positive); experiment: Proof-of-concept murine bacteraemia or bloodstream infection model, IV bolus; type: in vivo; conditions: CD-1 mice, single dose IV bolus 20 mg/kg
Procedure: Compound (I) and comparative compound (III) were evaluated in proof-of-concept studies in murine models for the treatment of a respiratory infection with Gram-negative bacteria of the order Enterobacterales, a bacteraemia or bloodstream infection with Gram-negative bacteria of the order Enterobacterales, and a urinary tract infection with Gram-negative bacteria of the order Enterobacterales. Each dot, triangle or square indicator represents a single mouse. LOD refers to the limit of detection of the bacteria. […] Each of the proof-of-concept studies was carried out separately. By vehicle is meant pharmaceutically acceptable carrier or excipient.
For the proof-of-concept study for the treatment of a bacteraemia or bloodstream infection with Gram-negative bacteria of the order Enterobacterales, CD-1 mice were infected with human urine isolate E. coli BAA-2469 (NDM-1 positive). One hour after infection (‘pre-treatment’ in FIG. 3), a vehicle (20% hydroxypropyl β cyclodextrin) containing no compound (I) or comparative compound (III), or a vehicle (20% hydroxypropyl β cyclodextrin) containing compound (I) or comparative compound (III), was administered by as a single dose IV bolus at 20 mg/kg.

[3] = system: Escherichia coli (100 isolates); experiment: MIC90 by broth microdilution (EUCAST), 100 isolates of Escherichia coli; type: cell-based; conditions: test concentrations 0.03-64 μg/mL
Procedure: (§1) Minimum Inhibitory Concentration (MIC90) versus 100 isolates of Escherichia coli and Klebsiella pneumonia were determined. The Minimum Inhibitory Concentration at which 90% of the isolates (strains) are inhibited (MIC90) were measured by broth microdilution in line with EUCAST susceptibility testing standards (www.eucast.org). Bacterial inocula were prepared at ca 1×10^6 CFU/mL by diluting 100-fold a 0.5 McFarland suspension. Antibacterial panels containing 50 μl of antibacterial solutions at 2×the final concentrations were diluted 2-fold with 50 μl of inoculum to give a final inoculum of ca 5×10^5 CFU/ml and desired test concentrations of antibacterial agents (0.03-64 μg/mL). The plates were incubated according to the guidelines of the Clinical and Laboratory Standards Institute (Clinical and Laboratory Standards Institute. Methods for Dilution Antimicrobial Susceptibility Tests for Bacteria That Grow Aerobically; Approved Standard-Eleventh Edition, CLSI document […], 11 Jan. 2018). The MIC90 (μg/ml) is the MIC value at which greater than or equal to 90% of the isolates (strains) within a test population are inhibited.

[4] = system: Klebsiella pneumonia (100 isolates); experiment: MIC90 by broth microdilution (EUCAST), 100 isolates of Klebsiella pneumonia; type: cell-based; conditions: test concentrations 0.03-64 μg/mL
Procedure: as §1

[5] = system: Proteus spp. (10 isolates); experiment: MIC by broth microdilution versus Proteus spp. isolates; type: cell-based
Procedure: as §1, with “inhibited. Minimum Inhibitory Concentrations (MICs) versus Proteus spp. and Providencia spp. were determined for compound (I) and comparative compound (III) using the methodology outlined above for the 100 isolates of Escherichia coli and Klebsiella pneumonia.” for “inhibited.”

[6] = system: Providencia spp. (10 isolates); experiment: MIC by broth microdilution versus Providencia spp. isolates; type: cell-based
Procedure: as §1, with “inhibited. Minimum Inhibitory Concentrations (MICs) versus Proteus spp. and Providencia spp. were determined for compound (I) and comparative compound (III) using the methodology outlined above for the 100 isolates of Escherichia coli and Klebsiella pneumonia.” for “inhibited.”

[7] = system: 44 ligands (including receptors, transporters, ion channels, enzymes and kinases); experiment: In vitro safety pharmacology binding assays (CEREP profile); conditions: 10 μM, 44 ligands tested, radioligand binding
Procedure: In vitro pharmacology binding assays were carried out for compound (I), comparative compound (II) and comparative compound (III) to evaluate the percentage of inhibition against 44 ligands (including receptors, transporters, ion channels, enzymes and kinases) at a concentration of 10 μM of compound (I), comparative compound (II) or comparative compound (III). Compound binding was calculated as a percentage of inhibition of the binding of a radioactively labelled ligand specific for each target. Results showing an inhibition higher than 50% are considered to represent discernible effects of compound (I), comparative compound (II) or comparative compound (III). […] The in vitro pharmacology binding assays for compound (I) and comparative compounds (II) and (III) was carried out separately over different days, and compared in FIGS. 1a, 1b, 1c, and 1d.

[8] = system: E. coli UTI89; experiment: Proof-of-concept murine urinary tract infection model, IV bolus; type: in vivo; conditions: IV bolus 20 mg/kg TID over 3 days, 96 h
Procedure: Compound (I) and comparative compound (III) were evaluated in proof-of-concept studies in murine models for the treatment of a respiratory infection with Gram-negative bacteria of the order Enterobacterales, a bacteraemia or bloodstream infection with Gram-negative bacteria of the order Enterobacterales, and a urinary tract infection with Gram-negative bacteria of the order Enterobacterales. Each dot, triangle or square indicator represents a single mouse. LOD refers to the limit of detection of the bacteria. […] Each of the proof-of-concept studies was carried out separately. By vehicle is meant pharmaceutically acceptable carrier or excipient. For the proof-of-concept study for the treatment of a urinary tract infection with Enterobacterales, female C3H/HeN mice were infected with E. coli UTI89. Twenty-four hours after infection (‘pre-treatment’ in FIGS. 4a-c), a vehicle (20% hydroxypropyl β cyclodextrin) containing no compound (I) or comparative compound (III), or a vehicle (20% hydroxypropyl β cyclodextrin) containing compound (I) or comparative compound (III), was administered by IV bolus of 20 mg/kg, TID (8 hrs apart), over 3 days.

[9] = system: E. coli UT189; experiment: Further proof-of-concept murine urinary tract infection model, intravenous infusion; type: in vivo; conditions: 96 h
Procedure: Compound (I) was evaluated in further proof-of-concept studies in murine models for the treatment of a respiratory infection with Gram-negative bacteria of the order Enterobacterales, and a urinary tract infection with Gram-negative bacteria of the order Enterobacterales. Each dot, triangle or square indicator represents a single mouse. LOD refers to the limit of detection of the bacteria. […] Each of the proof-of-concept studies was carried out separately. By vehicle is meant pharmaceutically acceptable excipient or carrier. For the further proof-of-concept study for the treatment of a urinary tract infection with Enterobacterales, female C3H/HeN mice were infected with E. coli UT189. Twenty-four hours after infection (‘pre-treatment’ in FIGS. 6a-c), mice were either treated with a vehicle control (20% hydroxypropyl β cyclodextrin) containing no compound (I), or a vehicle (20% hydroxypropyl β cyclodextrin) containing compound (I), administered by intravenous infusion for 1 hour (QD) with a dose of 20 mg/kg of compound (I). For some mice who received vehicle containing compound (I), an additional 1-hour continuous intravenous infusion was administered 5 hours after the time at which the first administration begun (BID, 5 hrs apart). The once or twice daily administration was continued for three days. For QD, administration took place between 24 to 25 hours, 48 to 49 hours, and 72 to 73 hours after infection, and for BID, administration took place between 24 to 25 hours, 29 to 30 hours, 48 to 49 hours, 53 to 54 hours, 72 to 73 hours and 77 to 78 hours after infection.

[10] = both QD and BID daily administration

| SMILES | CFU value in the lung relative to stasis level [1] | CFU value in the blood relative to stasis level ([2]; 9 h) | MIC Range Escherichia coli (100 isolates) [3] [µg/mL] | MIC Range Klebsiella pneumonia (100 isolates) [4] [µg/mL] | MIC Range Proteus spp. (10 isolates) [5] [µg/mL] | MIC Range Providencia spp. (10 isolates) [6] [µg/mL] | ligands with inhibition higher than 50% [7] | bacterial burden in the blood at end of study ([2]; 9 h after initial infection) | more efficacious than comparative compound (III) in reducing the CFU in the bladder [8] [log] | more efficacious than comparative compound (III) in reducing the CFU in the urine [8] [log] | bacterial burden in the urine at end of study ([8]; female C3H/HeN mice) | bacterial burden in the kidney at end of study ([9]; BID administration) | bacterial burden in the bladder at end of study [9, 10] | bacterial burden in the urine at end of study [9, 10] |
| --- | --- | --- | --- | --- | --- | --- | --- | --- | --- | --- | --- | --- | --- | --- |
| Cc1cnccc1-c1[nH]c(N)nc1-c1ccc2c(c1)N(C(=O)CN)CCO2 [Comparative Compound (III), reference compound] | relatively close to the stasis level | on or above the stasis level |  |  |  |  |  |  |  |  |  |  |  |  |
| Cc1cnccc1-c1[nH]c(N)nc1-c1ccc2c(c1)N(C(=O)C(C)(C)N)CCO2 [Compound (I), 2-amino-1-(6-(2-amino-5-(3-methylpyridin-4-yl)-1H-imidazol-4-yl)-2,3-dihydro-4H-benzo[b][1,4]oxazin-4-yl)-2-methylpropan-1-one] |  |  | 0.12 to 4.00 | 0.25 to 8.00 | 8 to 32 | 0.5 to 16 | only a single ligand | below the limit of detection (LOD) | 3 | 3 | below the limit of detection (LOD) | below the limit of detection (LOD) | below the limit of detection (LOD) | below the limit of detection (LOD) |
